Measurements taken from patent EP4782453A1 (Beyang Therapeutics Co., Ltd., priority 2023, dated 2025).

The compounds below were run against T1, Menin-MLL (Homo sapiens, UniProt O00255) (assay: Inhibitory activity against Menin-MLL binding (fluorescence polarization)). Conditions: fluorescence polarization; 150 nM His-Menin, 15 nM FITC-MLL; 25°C for 60 min; read-out: Menin-MLL IC50.
T1 construct: His-Menin (M1-L615 end); purchased BIORTUS BP9210
T1 sequence (O00255 1-615 isoform O00255-1): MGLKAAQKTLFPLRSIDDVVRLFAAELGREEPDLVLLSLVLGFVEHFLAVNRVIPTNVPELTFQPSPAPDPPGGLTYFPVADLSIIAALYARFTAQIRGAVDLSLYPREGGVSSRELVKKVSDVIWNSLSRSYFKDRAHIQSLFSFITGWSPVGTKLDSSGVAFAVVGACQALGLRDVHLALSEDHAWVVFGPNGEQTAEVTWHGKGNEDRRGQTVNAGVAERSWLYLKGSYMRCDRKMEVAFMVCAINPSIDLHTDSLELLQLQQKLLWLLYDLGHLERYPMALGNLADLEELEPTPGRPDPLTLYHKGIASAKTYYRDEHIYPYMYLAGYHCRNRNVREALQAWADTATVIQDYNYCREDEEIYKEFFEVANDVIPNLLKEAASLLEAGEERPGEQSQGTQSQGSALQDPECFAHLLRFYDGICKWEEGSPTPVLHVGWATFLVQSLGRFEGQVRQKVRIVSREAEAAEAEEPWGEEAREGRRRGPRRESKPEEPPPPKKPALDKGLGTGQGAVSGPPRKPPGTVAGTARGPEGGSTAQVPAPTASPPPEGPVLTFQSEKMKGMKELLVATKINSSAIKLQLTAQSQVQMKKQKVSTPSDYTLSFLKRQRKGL
Outline: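 His-Menin (M1-L615, 150 nM) preincubated with compound 15 min at 25 °C in HEPES pH 7.5, 50 mM NaCl, 1 mM DTT, 0.01% BSA, then 15 nM FITC-MLL4-43 peptide added for 60 min at 25 °C. Fluorescence polarization read; IC50 from 4-parameter logistic fit, duplicates.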
Compound `CCN(C(=O)c1cc(F)ccc1-c1cc(C2CN([C@H](CCCN3CCN(C)CC3)C(C)C)C2)cn2c(C)ncc12)C(C)C` [Example 310-2, N-ethyl-5-fluoro-2-(3-methyl-6-{1-[(3R)-2-methyl-6-(4-methylpiperazin-1-yl)hexan-3-yl]azacyclobutan-3-yl}imidazo[1,5-a]pyridin-8-yl)-N-(isopropyl)benzamide] has an IC50 of 3.6 nM. Work on `Cc1nc(F)c2c(-c3ccc(F)cc3C(=O)N3CCOC[C@H]3C)cc(C3CN(C(CC[C@@H]4COCCN4)C(C)C)C3)cn12` (stereo partly drawn) [Example 371, (3R)-4-{5-fluoro-2-[1-fluoro-3-methyl-6-(1-{4-methyl-1-[(3R)-morpholin-3-yl]pentan-3-yl}azacyclobutan-3-yl)imidazo[1,5-a]pyridin-8-yl]benzoyl}-3-methylmorpholine] yielded an IC50 of 4.8 nM. For `CCN(C(=O)c1cc(F)ccc1-c1cc(C2CCN(Cc3ccc(-c4cc(OC)c(OC)nn4)cc3)C2)cn2c(C)ncc12)C(C)C` (stereo not shown) [Example 83], the IC50 was 6 nM. `CC(=O)N1CCC(CN2CC(c3cc(-c4ccc(F)cc4C(=O)N4[C@H](C)COC[C@H]4C)c4c(F)nc(C)n4c3)C2)CC1` [Example 205] showed an IC50 of 10.3 nM. Work on `CCN(C(=O)c1cc(F)ccc1-c1cc(C2CN([C@H](CCCN3CCN(CCO)CC3)C(C)C)C2)cn2c(C)ncc12)C(C)C` [Example 398, N-ethyl-5-fluoro-2-(6-{1-[(3R)-6-[4-(2-hydroxyethyl)piperazin-1-yl]-2-methylhexan-3-yl]azacyclobutan-3-yl}-3-methylimidazo[1,5-a]pyridin-8-yl)-N-(isopropyl)benzamide] yielded an IC50 of 1.9 nM. `CO[C@H]1CCCN(CCC[C@H](C(C)C)N2CC(c3cc(-c4ccc(F)cc4C(=O)N4CCOC[C@H]4C)c4c(F)nc(C)n4c3)C2)C1` [Example 306] was tested, and the IC50 was 6.5 nM. For `CCN1CCN(CCC[C@H](C(C)C)N2CC(c3cc(-c4ccc(F)cc4C(=O)N4CCOC[C@H]4C)c4cnc(C)n4c3)C2)CC1` [Example 324-2], the IC50 was 2.5 nM. With `CC[C@@H](C1CCN(C(C)=O)CC1)N1CC(c2cc(-c3ccc(F)cc3C(=O)N3CCOC[C@H]3C)c3c(F)nc(C)n3c2)C1` [Example 280-1, 1-{4-[(1S)-1-[3-(1-fluoro-8-{4-fluoro-2-[(3R)-3-methylmorpholin-4-carbonyl]phenyl}-3-methylimidazo[1,5-a]pyridin-6-yl)azacyclobutan-1-yl]propyl]piperidin-1-yl}ethan-1-one] the IC50 was 15 nM. `COC1CCN(CCCC(C(C)C)N2CC(c3cc(-c4ccc(F)cc4C(=O)N4CCOCC4C)c4c(F)nc(C)n4c3)C2)C1` (stereo not shown) [Example 201-1] showed an IC50 of 2.6 nM. `Cc1nc(F)c2c(-c3ccc(F)cc3C(=O)N3CCOC[C@H]3C)cc(C3CN([C@H](CO[C@H]4CCCN(C)C4)C(C)C)C3)cn12` [Example 321-2, (3R)-4-[5-fluoro-2-(1-fluoro-3-methyl-6-{1-[(2S)-3-methyl-1-{[(3S)-1-methylpiperidin-3-yl]oxy}butan-2-yl]azacyclobutan-3-yl}imidazo[1,5-a]pyridin-8yl)benzoyl]-3-methylmorpholine] was tested, and the IC50 was 3.8 nM. Work on `CCN(C(=O)c1cc(F)ccc1-c1cc(C2CN([C@H](CN3CCN(CCO)CC3)C(C)C)C2)cn2c(C)ncc12)C(C)C` [Example 431, N-ethyl-5-fluoro-2-(6-{1-[(2S)-1-[4-(2-hydroxylethyl)piperazin-1-yl]-3-methylbutan-2-yl]azacyclobutan-3-yl}-3methylimidazo[1,5-a]pyridin-8-yl)-N-(isopropyl)benzamide] yielded an IC50 of 3.9 nM. `COCCN(C)CCC[C@H](C(C)C)N1CC(c2cc(-c3ccc(F)cc3C(=O)N3[C@H](C)COC[C@H]3C)c3cnn(C)c3c2)C1` [Example 186-2, [(4R)-4-[3-(4-{2-[(3R,5R)-3,5-dimethylmorpholin-4-carbonyl]-4-fluorophenyl}-1-methyl-1H-indazol-6-yl)azacyclobutan-1-yl]-5-methylhexyl](2-methoxyethyl)methylamine] showed an IC50 of 5.2 nM. `CCN(C(=O)c1cc(F)ccc1-c1cc(C2CN([C@H](CCCN3CCN(C)CC3)C(C)C)C2)cn2c(C)nc(F)c12)C(C)C` [Example 312-2] showed an IC50 of 2.8 nM.
